The text below walks through data of ChEMBL document CHEMBL5143690, “Identification of nitrofuranylchalcone tethered benzoxazole-2-amines as potent inhibitors of drug resistant Mycobacterium tuberculosis demonstrating bactericidal efficacy” (Bioorg Med Chem, 2022).

What all share (type): functional
Experiment [1] has as its system Mycobacterium tuberculosis. The experiment can be described thus: Antimycobacterial activity against isoniazid-resistant Mycobacterium tuberculosis H37Rv ATCC 35822 assessed as inhibition of bacterial growth incubated for 48 hrs by broth microdilution assay.
Experiment [2] deals with Mycobacterium tuberculosis. The experiment can be described thus: Antimycobacterial activity against ethambutol-resistant Mycobacterium tuberculosis H37Rv ATCC 35837 assessed as inhibition of bacterial growth incubated for 48 hrs by resazurin microtitre assay.
The test system of experiment [3] is Mycobacterium tuberculosis. Briefly: Antimycobacterial activity against Streptomycin-resistant Mycobacterium tuberculosis H37Rv ATCC 35820 assessed as inhibition of bacterial growth incubated for 48 hrs by resazurin microtitre assay.
In experiment [4] the test system is Mycobacterium tuberculosis. The experiment can be described thus: Antimycobacterial activity against rifampicin-resistant Mycobacterium tuberculosis H37Rv ATCC 35838 assessed as inhibition of bacterial growth incubated for 48 hrs by resazurin microtitre assay. (In general: The colour change of resazurin is a common sign of viable cells or microbes.)

Values after ≈ are worked out from the molar mass of the structure shown. Where only a bound is given, the exact number is not on record here.

Usually MIC stands for the least concentration at which growth counts as inhibited. Regarding `CN[C@@H]1[C@H](O[C@H]2[C@H](O[C@H]3[C@H](O)[C@@H](O)[C@H](N=C(N)N)[C@@H](O)[C@@H]3N=C(N)N)O[C@@H](C)[C@]2(O)C=O)O[C@@H](CO)[C@H](O)[C@H]1O` [STREPTOMYCIN], the MIC in experiment [1] is 1 µg/mL (≈ 1.72 µM); in experiment [2], 1 µg/mL (≈ 1.72 µM); in experiment [3] it was greater than 64 µg/mL; in experiment [4], 1 µg/mL (≈ 1.72 µM).

`O=C(/C=C/c1ccc([N+](=O)[O-])o1)c1ccc(Nc2nc3cc(Cl)ccc3o2)cc1`: the MIC stood at 0.06 µg/mL (≈ 0.146 µM) in experiment [1], 0.03 µg/mL (≈ 0.0732 µM) in experiment [2], 0.06 µg/mL (≈ 0.146 µM) in experiment [3] and 0.03 µg/mL (≈ 0.0732 µM) in experiment [4].

Turning to `Cc1ccc2oc(Nc3ccc(C(=O)/C=C/c4ccc([N+](=O)[O-])o4)cc3)nc2c1`, the MIC came out at 0.12 µg/mL (≈ 0.308 µM) in experiment [1], 0.06 µg/mL (≈ 0.154 µM) in experiment [2], 0.06 µg/mL (≈ 0.154 µM) in experiment [3] and 0.03 µg/mL (≈ 0.077 µM) in experiment [4].

Take `O=C(/C=C/c1ccc([N+](=O)[O-])o1)c1ccc(Nc2nc3cc([N+](=O)[O-])ccc3o2)cc1`: the MIC is 0.25 µg/mL (≈ 0.595 µM) in experiment [1], 0.06 µg/mL (≈ 0.143 µM) in experiment [2], 0.12 µg/mL (≈ 0.285 µM) in experiment [3] and 0.03 µg/mL (≈ 0.0714 µM) in experiment [4].

Consider `CC[C@@H](CO)NCCN[C@@H](CC)CO` [ETHAMBUTOL], for which the MIC came out at 1 µg/mL (≈ 4.89 µM) in experiment [1], 32 µg/mL (≈ 157 µM) in experiment [2], 1 µg/mL (≈ 4.89 µM) in experiment [3] and 1 µg/mL (≈ 4.89 µM) in experiment [4].

On to `NNC(=O)c1ccncc1` [ISONIAZID], for which the minimum inhibitory concentration (MIC) is greater than 64 µg/mL in experiment [1], 0.03 µg/mL (≈ 0.219 µM) in experiment [2], 0.03 µg/mL (≈ 0.219 µM) in experiment [3] and 0.03 µg/mL (≈ 0.219 µM) in experiment [4].

For `O=C(/C=C/c1ccc([N+](=O)[O-])o1)c1cccc(Nc2nc3ccccc3o2)c1`, the minimal inhibitory concentration (MIC) in experiment [1] stood at 0.25 µg/mL (≈ 0.666 µM); in experiment [2] it was 0.06 µg/mL (≈ 0.16 µM); in experiment [3], 0.12 µg/mL (≈ 0.32 µM); in experiment [4], 0.03 µg/mL (≈ 0.0799 µM).

On to `CO[C@H]1/C=C/O[C@@]2(C)Oc3c(C)c(O)c4c(O)c(c(/C=N/N5CCN(C)CC5)c(O)c4c3C2=O)NC(=O)/C(C)=C\C=C\[C@H](C)[C@H](O)[C@@H](C)[C@@H](O)[C@@H](C)[C@H](OC(C)=O)[C@@H]1C` [RIFAMPIN], for which the MIC came to 0.03 µg/mL (≈ 0.0365 µM) in experiment [1], 0.03 µg/mL (≈ 0.0365 µM) in experiment [2], 0.03 µg/mL (≈ 0.0365 µM) in experiment [3] and 64 µg/mL (≈ 77.8 µM) in experiment [4].

For `O=C(/C=C/c1ccc([N+](=O)[O-])o1)c1ccc(Nc2nc3ccccc3o2)cc1`, the MIC was 0.06 µg/mL (≈ 0.16 µM) in experiment [1], 0.03 µg/mL (≈ 0.0799 µM) in experiment [2], 0.12 µg/mL (≈ 0.32 µM) in experiment [3] and 0.03 µg/mL (≈ 0.0799 µM) in experiment [4].
